The compounds below were run against T1, chimeric human H3 receptor (Homo sapiens, UniProt Q9Y5N1) (assay: Chimeric human H3 receptor screening GTP binding assay (inhibition of histamine-stimulated GTP-gamma35S binding, Example 8)). Conditions: symbol ! in Ki; test compound 4 μM, 1 μM histamine; read-out: percent inhibition of agonist-induced GTP-gammaS binding to H3.
T1 construct: rat Galpha-i2 (Gnai2, rat); made in house; host or cells: Sf9 insect cells (baculovirus); P2 membranes
T1 sequence (Q9Y5N1 with tags, fused parts or gaps): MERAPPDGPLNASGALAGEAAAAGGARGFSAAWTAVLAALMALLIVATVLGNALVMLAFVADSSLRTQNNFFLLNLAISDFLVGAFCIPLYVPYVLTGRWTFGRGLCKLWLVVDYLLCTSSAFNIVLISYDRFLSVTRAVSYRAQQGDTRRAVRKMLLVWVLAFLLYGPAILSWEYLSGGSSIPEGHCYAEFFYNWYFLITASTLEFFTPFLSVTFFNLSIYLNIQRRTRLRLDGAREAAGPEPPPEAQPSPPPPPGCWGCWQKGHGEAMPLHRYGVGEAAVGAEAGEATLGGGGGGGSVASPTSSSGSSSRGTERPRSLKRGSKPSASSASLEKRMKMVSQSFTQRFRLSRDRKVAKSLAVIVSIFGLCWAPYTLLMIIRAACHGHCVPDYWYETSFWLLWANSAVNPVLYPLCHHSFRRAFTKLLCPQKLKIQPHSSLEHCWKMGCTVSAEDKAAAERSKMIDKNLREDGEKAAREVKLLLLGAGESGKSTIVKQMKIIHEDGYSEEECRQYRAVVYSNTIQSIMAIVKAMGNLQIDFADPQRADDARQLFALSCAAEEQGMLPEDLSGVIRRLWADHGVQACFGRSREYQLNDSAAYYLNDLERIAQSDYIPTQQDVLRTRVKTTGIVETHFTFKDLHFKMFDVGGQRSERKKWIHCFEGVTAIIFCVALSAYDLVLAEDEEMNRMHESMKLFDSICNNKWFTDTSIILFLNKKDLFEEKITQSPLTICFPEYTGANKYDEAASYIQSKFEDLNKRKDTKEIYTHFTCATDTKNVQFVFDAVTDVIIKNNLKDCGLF
Assay type: biochemical
Method: This Example illustrates a representative screening assay for evaluating inhibition of histamine-stimulated GTP-gamma^35S binding. Such GTP binding activity can be used to identify H3 antagonists and inverse agonists. A compound analyzed in this assay is referred to herein as a “test compound,” and the initial identification of antagonists and inverse agonists is performed using a test compound concentration of 4 μM.
Four independent baculoviral stocks (one directing the expression of the chimeric human H3 receptor and three directing the expression of each of the three subunits of a heterotrimeric G-protein) are used to infect a culture of Sƒ9 cells as described above. P2 membranes are prepared as described above, and are resuspended by Dounce homogenization (tight pestle) in GTP binding assay buffer (50 mM Tris pH 7.4, 120 mM NaCl, 5 mM MgCl2, 2 mM EGTA, 1 mg/ml BSA, 0.2 mg/ml bacitracin, 0.02 mg/ml aprotinin, 0.01 mg/ml saponin, 10 μM GDP) and added to assay tubes at a concentration of 35 μg protein/reaction tube. Non-radiolabeled test compounds are added to separate reactions at a concentration of 4 μM along with 1 μM histamine (agonist). Reactions are initiated by the addition of 125 pM GTP-gamma^35S with a final assay volume of 0.20 ml.
After a 60-min incubation at room temperature, reactions are terminated by vacuum filtration over GF/C filters (pre-soaked in 50 mM Tris pH 7.4, 120 mM NaCl plus 0.1% BSA) followed by washing with ice-cold buffer (50 mM Tris pH 7.4, 120 mM NaCl). The amount of receptor-bound (and thereby membrane-bound) GTP-gamma^35S is determined by measuring the bound radioactivity, preferably by liquid scintillation spectrometry of the washed filters. Non-specific binding is determined using 10 uM GTP-gammaS and typically represents less than 5 percent of total binding. After subtraction of non-specific binding, data is expressed as percent inhibition of 1 μM histamine signal.
Neutral antagonists are those test compounds that reduce the histamine-stimulated GTP binding activity towards, but not below, baseline levels. In contrast, in the absence of added histamine, inverse agonists reduce the GTP binding activity of the receptor-containing membranes below baseline. Any test compound that elevates GTP binding activity above baseline in the absence of added histamine in this assay is defined as having agonist activity.
With `CCn1nc(C)cc1C(=O)N1CCc2c(ncnc2N2CCN(C3CCC3)CC2)C1` [Compound 40, 4-(4-cyclobutylpiperazin-1-yl)-7-[(1-ethyl-3-methyl-1H-pyrazol-5-yl)carbonyl]-5,6,7,8-tetrahydropyrido[3,4-d]pyrimidine] the inhibition at 4 µM was no less than 90%.
`CC(C)c1ccc(C(=O)N2CCc3c(ncnc3N3CCN(C4CCC4)CC3)C2)cc1` [Compound 41, 4-(4-cyclobutylpiperazin-1-yl)-7-(4-isopropylbenzoyl)-5,6,7,8-tetrahydropyrido[3,4-d]pyrimidine] gave an inhibition at 4 µM of no less than 90%.
For `CCC(=O)N1CCc2c(ncnc2N2CCN(C3CCC3)CC2)C1` [Compound 42, 4-(4-cyclobutylpiperazin-1-yl)-7-propionyl-5,6,7,8-tetrahydropyrido[3,4-d]pyrimidine], the inhibition at 4 µM was no less than 90%.
For `CCCC(=O)N1CCc2c(ncnc2N2CCN(C3CCC3)CC2)C1` [Compound 43, 7-butyryl-4-(4-cyclobutylpiperazin-1-yl)-5,6,7,8-tetrahydropyrido[3,4-d]pyrimidine], the inhibition at 4 µM was no less than 90%.
`CCCCC(=O)N1CCc2c(ncnc2N2CCN(C3CCC3)CC2)C1` [Compound 44, 4-(4-cyclobutylpiperazin-1-yl)-7-pentanoyl-5,6,7,8-tetrahydropyrido[3,4-d]pyrimidine] showed an inhibition at 4 µM of no less than 90%.
In the case of `CC(C)CC(=O)N1CCc2c(ncnc2N2CCN(C3CCC3)CC2)C1` [Compound 45, 4-(4-cyclobutylpiperazin-1-yl)-7-(3-methylbutanoyl)-5,6,7,8-tetrahydropyrido[3,4-d]pyrimidine], the inhibition at 4 µM is reported as no less than 90%.
Compound `CC(C)CCC(=O)N1CCc2c(ncnc2N2CCN(C3CCC3)CC2)C1` [Compound 46, 4-(4-cyclobutylpiperazin-1-yl)-7-(4-methylpentanoyl)-5,6,7,8-tetrahydropyrido[3,4-d]pyrimidine] has an inhibition at 4 µM of no less than 90%.
`O=C(CC1CCCC1)N1CCc2c(ncnc2N2CCN(C3CCC3)CC2)C1` [Compound 47, 4-(4-cyclobutylpiperazin-1-yl)-7-(cyclopentylacetyl)-5,6,7,8-tetrahydropyrido[3,4-d]pyrimidine] gave an inhibition at 4 µM of no less than 90%.
`O=C(CC1CCCCC1)N1CCc2c(ncnc2N2CCN(C3CCC3)CC2)C1` [Compound 48, 4-(4-cyclobutylpiperazin-1-yl)-7-(cyclohexylacetyl)-5,6,7,8-tetrahydropyrido[3,4-d]pyrimidine] was tested, and the inhibition at 4 µM was no less than 90%.
`O=C(CCC1CCCC1)N1CCc2c(ncnc2N2CCN(C3CCC3)CC2)C1` [Compound 49, 4-(4-cyclobutylpiperazin-1-yl)-7-(3-cyclopentylpropanoyl)-5,6,7,8-tetrahydropyrido[3,4-d]pyrimidine] gave an inhibition at 4 µM of no less than 90%.
Compound `O=C(Cc1ccccc1)N1CCc2c(ncnc2N2CCN(C3CCC3)CC2)C1` [Compound 50, 4-(4-cyclobutylpiperazin-1-yl)-7-(phenylacetyl)-5,6,7,8-tetrahydropyrido[3,4-d]pyrimidine] has an inhibition at 4 µM of no less than 90%.
In the case of `COCCC(=O)N1CCc2c(ncnc2N2CCN(C3CCC3)CC2)C1` [Compound 51, 4-(4-cyclobutylpiperazin-1-yl)-7-(3-methoxypropanoyl)-5,6,7,8-tetrahydropyrido[3,4-d]pyrimidine], the inhibition at 4 µM is reported as no less than 90%.
`O=C(C1CC1)N1CCc2c(ncnc2N2CCN(C3CCC3)CC2)C1` [Compound 52, 4-(4-cyclobutylpiperazin-1-yl)-7-(cyclopropylcarbonyl)-5,6,7,8-tetrahydropyrido[3,4-d]pyrimidine] gave an inhibition at 4 µM of no less than 90%.
`O=C(C1CCC1)N1CCc2c(ncnc2N2CCN(C3CCC3)CC2)C1` [Compound 53, 7-(cyclobutylcarbonyl)-4-(4-cyclobutylpiperazin-1-yl)-5,6,7,8-tetrahydropyrido[3,4-d]pyrimidine] gave an inhibition at 4 µM of no less than 90%.
Work on `O=C(C1CCCC1)N1CCc2c(ncnc2N2CCN(C3CCC3)CC2)C1` [Compound 54, 4-(4-cyclobutylpiperazin-1-yl)-7-(cyclopentylcarbonyl)-5,6,7,8-tetrahydropyrido[3,4-d]pyrimidine] yielded an inhibition at 4 µM of no less than 90%.
`O=C(C1CCCCC1)N1CCc2c(ncnc2N2CCN(C3CCC3)CC2)C1` [Compound 55, 4-(4-cyclobutylpiperazin-1-yl)-7-(cyclohexylcarbonyl)-5,6,7,8-tetrahydropyrido[3,4-d]pyrimidine] gave an inhibition at 4 µM of no less than 90%.
Compound `O=C(C1CCCCCC1)N1CCc2c(ncnc2N2CCN(C3CCC3)CC2)C1` [Compound 56, 4-(4-cyclobutylpiperazin-1-yl)-7-(cycloheptylcarbonyl)-5,6,7,8-tetrahydropyrido[3,4-d]pyrimidine] has an inhibition at 4 µM of no less than 90%.
`O=C(C1CCCO1)N1CCc2c(ncnc2N2CCN(C3CCC3)CC2)C1` (centres unmarked) [Compound 57, 4-(4-cyclobutylpiperazin-1-yl)-7-(tetrahydrofuran-2-ylcarbonyl)-5,6,7,8-tetrahydropyrido[3,4-d]pyrimidine] was tested, and the inhibition at 4 µM was no less than 90%.
`O=C(C1CCOC1)N1CCc2c(ncnc2N2CCN(C3CCC3)CC2)C1` (centres unmarked) [Compound 58, 4-(4-cyclobutylpiperazin-1-yl)-7-(tetrahydrofuran-3-ylcarbonyl)-5,6,7,8-tetrahydropyrido[3,4-d]pyrimidine] was tested, and the inhibition at 4 µM was no less than 90%.
`CC(C)C(=O)N1CCc2c(ncnc2N2CCN(C3CCC3)CC2)C1` [Compound 59, 4-(4-cyclobutylpiperazin-1-yl)-7-isobutyryl-5,6,7,8-tetrahydropyrido[3,4-d]pyrimidine] was tested, and the inhibition at 4 µM was no less than 90%.
Compound `CCC(C)C(=O)N1CCc2c(ncnc2N2CCN(C3CCC3)CC2)C1` (centres unmarked) [Compound 60, 4-(4-cyclobutylpiperazin-1-yl)-7-(2-methylbutanoyl)-5,6,7,8-tetrahydropyrido[3,4-d]pyrimidine] has an inhibition at 4 µM of no less than 90%.
Compound `CCCC(C)C(=O)N1CCc2c(ncnc2N2CCN(C3CCC3)CC2)C1` (centres unmarked) [Compound 61, 4-(4-cyclobutylpiperazin-1-yl)-7-(2-methylpentanoyl)-5,6,7,8-tetrahydropyrido[3,4-d]pyrimidine] has an inhibition at 4 µM of no less than 90%.
`O=C(/C=C/c1ccccc1)N1CCc2c(ncnc2N2CCN(C3CCC3)CC2)C1` [Compound 62, 4-(4-cyclobutylpiperazin-1-yl)-7-[(2E)-3-phenylprop-2-enoyl]-5,6,7,8-tetrahydropyrido[3,4-d]pyrimidine] showed an inhibition at 4 µM of no less than 90%.
Work on `COc1ccc(C(=O)N2CCc3c(ncnc3N3CCN(C4CCC4)CC3)C2)cc1Cl` [Compound 63, 7-(3-chloro-4-methoxybenzoyl)-4-(4-cyclobutylpiperazin-1-yl)-5,6,7,8-tetrahydropyrido[3,4-d]pyrimidine] yielded an inhibition at 4 µM of no less than 90%.
`Cc1ccc(C)c(C(=O)N2CCc3c(ncnc3N3CCN(C4CCC4)CC3)C2)c1` [Compound 64, 4-(4-cyclobutylpiperazin-1-yl)-7-(2,5-dimethylbenzoyl)-5,6,7,8-tetrahydropyrido[3,4-d]pyrimidine] gave an inhibition at 4 µM of no less than 90%.
`COCCOCC(=O)N1CCc2c(ncnc2N2CCN(C3CCC3)CC2)C1` [Compound 65, 4-(4-cyclobutylpiperazin-1-yl)-7-[(2-methoxyethoxy)acetyl]-5,6,7,8-tetrahydropyrido[3,4-d]pyrimidine] gave an inhibition at 4 µM of no less than 90%.
For `Fc1ccccc1CN1CCc2c(ncnc2N2CCN(C3CCC3)CC2)C1` [Compound 66, 4-(4-cyclobutylpiperazin-1-yl)-7-(2-fluorobenzyl)-5,6,7,8-tetrahydropyrido[3,4-d]pyrimidine], the inhibition at 4 µM was no less than 90%.
`Fc1cccc(CN2CCc3c(ncnc3N3CCN(C4CCC4)CC3)C2)c1` [Compound 67, 4-(4-cyclobutylpiperazin-1-yl)-7-(3-fluorobenzyl)-5,6,7,8-tetrahydropyrido[3,4-d]pyrimidine] was tested, and the inhibition at 4 µM was no less than 90%.
Work on `Fc1ccc(CN2CCc3c(ncnc3N3CCN(C4CCC4)CC3)C2)cc1` [Compound 68, 4-(4-cyclobutylpiperazin-1-yl)-7-(4-fluorobenzyl)-5,6,7,8-tetrahydropyrido[3,4-d]pyrimidine] yielded an inhibition at 4 µM of no less than 90%.
`Cc1cccc(CN2CCc3c(ncnc3N3CCN(C4CCC4)CC3)C2)c1` [Compound 69, 4-(4-cyclobutylpiperazin-1-yl)-7-(3-methylbenzyl)-5,6,7,8-tetrahydropyrido[3,4-d]pyrimidine] gave an inhibition at 4 µM of no less than 90%.
Compound `Cc1ccc(CN2CCc3c(ncnc3N3CCN(C4CCC4)CC3)C2)cc1` [Compound 70, 4-(4-cyclobutylpiperazin-1-yl)-7-(4-methylbenzyl)-5,6,7,8-tetrahydropyrido[3,4-d]pyrimidine] has an inhibition at 4 µM of no less than 90%.
Compound `Cn1ccnc1CN1CCc2c(ncnc2N2CCN(C3CCC3)CC2)C1` [Compound 71, 4-(4-cyclobutylpiperazin-1-yl)-7-[(1-methyl-1H-imidazol-2-yl)methyl]-5,6,7,8-tetrahydropyrido[3,4-d]pyrimidine] has an inhibition at 4 µM of no less than 90%.

— patent publication US20080051387A1, “TETRAHYDROPYRIDO[3,4-D]PYRIMIDINES AND RELATED ANALOGUES” (priority 2006, published 2008)
